These results are taken from patent publication US20120189670A1, “PHARMACEUTICAL COMPOSITIONS AND FORMULATIONS INCLUDING INHIBITORS OF THE PLECKSTRIN HOMOLOGY DOMAIN AND METHODS FOR USING SAME” (priority 2009, published 2012).

The target of test [1] is AKT (phospho-Ser^473-AKT) in BxPC-3 (Homo sapiens, UniProt P31749). Kind of test: Western blot phospho-Ser473-AKT in BxPC-3 cells. As to conditions: for inhibition at 10 µM: BXPC-3, read-out: % pAKT Inhibition At 10 μM. (In general: Immunoblotting shows a protein as a band on a membrane.)
Chain of AKT (phospho-Ser^473-AKT) in BxPC-3 (P31749 whole entry): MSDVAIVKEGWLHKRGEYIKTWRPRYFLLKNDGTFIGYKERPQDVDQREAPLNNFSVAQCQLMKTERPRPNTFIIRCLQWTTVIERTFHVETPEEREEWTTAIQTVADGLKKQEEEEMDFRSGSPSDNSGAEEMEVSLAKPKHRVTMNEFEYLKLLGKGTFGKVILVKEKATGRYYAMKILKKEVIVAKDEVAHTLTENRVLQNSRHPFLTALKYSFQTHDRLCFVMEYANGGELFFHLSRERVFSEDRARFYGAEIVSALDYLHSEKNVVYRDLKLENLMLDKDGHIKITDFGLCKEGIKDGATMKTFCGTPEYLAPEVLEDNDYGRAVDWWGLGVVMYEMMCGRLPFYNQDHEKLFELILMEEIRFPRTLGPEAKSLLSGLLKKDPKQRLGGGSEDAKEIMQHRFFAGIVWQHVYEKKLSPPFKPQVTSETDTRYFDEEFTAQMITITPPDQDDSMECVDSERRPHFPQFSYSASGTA
In another test the test system is pancreatic cancer cells. Kind of test: Cell viability assay (Table 3). To be noted: for Cell viability (IC50): viability assay, cell line not given; for IC50: Homo sapiens, Pancreatic cancer cell, read-out: Cell viability (IC50).
The target of test [2] is AKT (phospho-Ser^473-AKT) in MiaPaCa-2 cells (Homo sapiens, UniProt P31749). The experiment in a line: Western blot phospho-Ser473-AKT in MiaPaCa-2 cells. To be noted: for pAKT inhibition (IC50): MiaPaCa-2 cells.
Chain of AKT (phospho-Ser^473-AKT) in MiaPaCa-2 cells (P31749 whole entry): as above
In test [3] the test system is BxPC-3 pancreatic cell lines. Kind of test: MTT cell survival, BxPC-3. Format: cell-based. To be noted: Homo sapiens; BxPC-3, MTT.

Each structure is given as a SMILES string.

Broadly, the inhibition is the change of the read-out against control, counted positive when it falls. In general, IC50 refers to the concentration that inhibits the measured activity by half.

On to `Nc1ccc(S(=O)(=O)Nc2nnc(CC(=O)O)s2)cc1` [Compound 117, 2-(5-(4-Aminophenylsulfonamido)-1,3,4-thiadiazol-2-yl)acetic Acid], for which the inhibition at 10 µM in test [1] worked out at 23%.
With `COc1cc(NS(=O)(=O)c2ccc(C(C)=O)cc2)nc(OC)n1` [Compound 450], in the test with pancreatic cancer cells, the “Cell viability (IC50)” value is “N/I”.
For `O=C(O)c1ccccc1C(=O)Nc1ccccc1N1CCOCC1` [Compound 438], the “Cell viability (IC50)” value in the test with pancreatic cancer cells is “N/I”. The “pAKT inhibition (IC50)” value in test [2] is on record as “N/I”.
Regarding `O=C(Nc1ccccc1SCCS(=O)(=O)c1ccc(Cl)cc1)c1ccccc1Cl` [Compound 436], the “Cell viability (IC50)” value in the test on pancreatic cancer cells is “N/I”. Further, the “pAKT inhibition (IC50)” value in test [2] is given as “N/I”.
Consider `Cc1cc(C)nc(NS(=O)(=O)c2ccc(NC(=O)c3ccoc3C)cc2)n1` [Compound 447], for which the “Cell viability (IC50)” value in the test with pancreatic cancer cells is reported as “N/I”. Besides, the “pAKT inhibition (IC50)” value in test [2] is reported as “N/I”.
Consider `CC(=O)Nc1ccc(S(=O)(=O)Nc2nnc(C(C)(C)C)s2)cc1` [Compound 114, N-(4-(N-(5-tert-Butyl-1,3,4-thiadiazol-2-yl)sulfamoyl)phenyl)acetamide], for which the inhibition at 10 µM in test [1] worked out at 20%.
Still for that read-out and setting: under `CC(=O)Nc1ccc(S(=O)(=O)Nc2nnc(S(N)(=O)=O)s2)cc1` [Compound 138, N-(4-(N-(5-Sulfamoyl-1,3,4-thiadiazol-2-yl)sulfamoyl)phenyl)acetamide] stands less than 10%; under `CCc1nnc(NS(=O)(=O)c2ccc(NC(C)=O)cc2)s1` [Compound 110, N-(4-(N-(5-Ethyl-1,3,4-thiadizol-2-yl)sulfamoyl)phenyl)acetamide], 45%; under `CCc1nnc(NS(=O)(=O)c2ccc(N)cc2)s1` [Compound 109, 4-Amino-N-(5-ethyl-1,3,4-thiadiazol-2-yl)benzenesulfonamide], 16%.
As for `CCOc1ccccc1C(=O)Nc1ccccc1C(=O)O` [Compound 441], the “Cell viability (IC50)” value in the test with pancreatic cancer cells is listed as “N/I”. In addition, in test [2], the half-inhibitory concentration (IC50) is 25 µM.
For the compound `COc1cc(NS(=O)(=O)c2ccc(NC(=O)c3ccco3)cc2)nc(OC)n1` [Compound 445], the “Cell viability (IC50)” value with pancreatic cancer cells is “N/I”.
`CCCCCCCCCCCCc1ccc(S(=O)(=O)Nc2nnc(C(=O)OCC)s2)cc1` [Compound 124E, Ethyl 5-(4-dodecylphenylsulfonamido)-1,3,4-thiadiazole-2-carboxylate] registered an IC50 in test [3] of 36 µM.
For the compound `O=S(=O)(Nc1nccs1)c1ccc2ccccc2c1` [Compound 437], the “Cell viability (IC50)” value with pancreatic cancer cells was “N/I”. Besides, the “pAKT inhibition (IC50)” value in test [2] was “N/I”.
Turning to `CCOC(=O)Cc1nnc(NS(=O)(=O)c2ccc(NC(C)=O)cc2)s1` [Compound 118E, Ethyl 2-(5-(4-Acetamidophenylsulfonamido)-1,3,4-thiadiazol-2-yl)acetate], in test [1], the inhibition at 10 µM was 55%.
For `CCCCCCCCCCCCc1ccc(S(=O)(=O)Nc2nnc(CCCCCN(C)c3ccc([N+](=O)[O-])c4nonc34)s2)cc1` [Compound 137, 4-Dodecyl-N-(5-(5-(methyl(7-nitrobenzo[c][1,2,5]oxadiazol-4-yl)amino)pentyl)-1,3,4-thiadiazol-2-yl)benzenesulfonamide], the “AKT phosphorylation inhibition (qualitative)” value in test [1] (BxPC-3 cells) was “inhibited AKT phosphorylation in a fashion similar to 104”.
Regarding `CC(=O)Nc1ccc(S(=O)(=O)Nc2nnc(CO)s2)cc1` [Compound 126, N-(4-(N-(5-(hydroxymethyl)-1,3,4-thiadiazol-2-yl)sulfamoyl)phenyl)acetamide], the inhibition at 10 µM in test [1] was less than 10%.
On the same count and under the same terms, then `CCCCc1ccc(S(=O)(=O)Nc2nncs2)cc1` [Compound 155, 4-Butyl-N-(1,3,4-thiadiazol-2-yl)benzenesulfonamide], with less than 10%; and `CCCCCCCCc1ccc(S(=O)(=O)Nc2nncs2)cc1` [Compound 153, 4-Octyl-N-(1,3,4-thiadiazol-2-yl)benzenesulfonamide], with 10%.
In turn, `CCCCCCCCCCCCc1ccc(S(=O)(=O)Nc2nnc(C(C)(C)C)s2)cc1` [Compound 116, N-(5-tert-Butyl-1,3,4-thiadiazol-2-yl)-4-dodecylbenzenesulfonamide] gave a 50% inhibitory concentration (IC50) in test [3] of 45 µM. Besides, the inhibition at 10 µM in test [1] is 36%.
For `COc1cc(NS(=O)(=O)c2ccc(Nc3ccco3)cc2)nc(OC)n1` [Compound 454], the “pAKT inhibition (IC50)” value in test [2] was “N/I”.
In test [3], `CCCCCCCCCCCCc1ccc(S(=O)(=O)Nc2nnc(CO)s2)cc1` [Compound 128, 4-Dodecyl-N-(5-(hydroxymethyl)-1,4-thiadiazol-2-yl)benzenesulfonamide] had an IC50 of 37 µM.
In test [3], `CCCCCCCCCCCCc1ccc(S(=O)(=O)Nc2nnc(C)s2)cc1` [Compound 108, 4-Dodecyl-N-(5-methyl-1,3,4-thiadiazol-2-yl)benzenesulfonamide] had an IC50 of 61 µM. Also, the inhibition at 10 µM in test [1] came to 64%.
Consider `COc1cc(NS(=O)(=O)c2ccc(NC(=O)C(C)(C)C)cc2)nc(OC)n1` [Compound 452], for which, in the test on pancreatic cancer cells, the “Cell viability (IC50)” value was “N/I”. Also, in test [2], the “pAKT inhibition (IC50)” value was “N/I”.
For `COc1cc(NS(=O)(=O)c2ccc(Nc3ccco3)cc2)nc(OC)n1` [Compound 444], the “Cell viability (IC50)” value in the test on pancreatic cancer cells is “N/I”.
As for `CC(C)(C)c1nnc(NS(=O)(=O)c2ccc(N)cc2)s1` [Compound 113, 4-Amino-N-(5-tert-butyl-1,3,4-thiadiazol-2-yl)benzenesulfonamide], in test [1], the inhibition at 10 µM amounted to 13%.
The same measure, in the same setting: then `Nc1ccc(S(=O)(=O)Nc2nnc(S(N)(=O)=O)s2)cc1` [Compound 131, 5-(4-Aminophenylsulfonamido)-1,3,4-thiadiazole-2-sulfonamide], with 18%; and `Nc1ccc(S(=O)(=O)Nc2nnc(CO)s2)cc1` [Compound 125, 4-Amino-N-(5-(hydroxymethyl)-1,3,4-thiadiazol-2-yl)benzenesulfonamide], with 10%.
In the case of `Nc1ccc(S(=O)(=O)Nc2ccc(S(=O)(=O)Nc3nnc(S(N)(=O)=O)s3)cc2)cc1` [Compound 456], the “Cell viability (IC50)” value in the test with pancreatic cancer cells was “N/I”.
For `Cc1noc(C)c1S(=O)(=O)Nc1ccc(Oc2c(Cl)cccc2Cl)nc1` [Compound 448], the half-inhibitory concentration (IC50) in the test with pancreatic cancer cells worked out at 80 µM. Further, the “pAKT inhibition (IC50)” value in test [2] is on record as “N/I”.
`CCCCCCc1ccc(S(=O)(=O)Nc2nncs2)cc1` [Compound 154, 4-Hexyl-N-(1,3,4-thiadiazol-2-yl)benzenesulfonamide]: the inhibition at 10 µM in test [1] is less than 10%.
For `Cc1cc(C)nc(NS(=O)(=O)c2ccc(NC(=O)c3ccoc3C)cc2)n1` [Compound 446], the “Cell viability (IC50)” value in the test with pancreatic cancer cells is on record as “N/I”. Further, the “pAKT inhibition (IC50)” value in test [2] is reported as “N/I”.
For `Cc1nnc(NS(=O)(=O)c2ccc(NS(=O)(=O)c3ccc4ccccc4c3)cc2)s1` [Compound 455], in the test on pancreatic cancer cells, the “Cell viability (IC50)” value is “did not exhibit cytotoxicity and N/I”.
For `Cc1onc(-c2ccccc2)c1C(=O)Nc1ccc(S(=O)(=O)Nc2ncccn2)cc1` [Compound 453], in the test with pancreatic cancer cells, the “Cell viability (IC50)” value is given as “N/I”. Besides, the “pAKT inhibition (IC50)” value in test [2] was “N/I”.
On to `CCOC(=O)c1nnc(NS(=O)(=O)c2ccc(NC(C)=O)cc2)s1` [Compound 122E, Ethyl 5-(4-Acetamidophenylsulfonamido)-1,3,4-thiadiazole-2-carboxylate], for which the inhibition at 10 µM in test [1] is less than 10%.
In turn, `CCCCCCCCCCCCc1ccc(S(=O)(=O)Nc2nnc(CC(=O)O)s2)cc1` [Compound 120, 2-(5-(4-Dodecylphenylsulfonamido)-1,3,4-thiadiazol-2-yl)acetic Acid] displayed an IC50 in test [3] greater than 100 µM.
In the case of `CC(=O)Nc1ccc(S(=O)(=O)Nc2nnc(C)s2)cc1` [Compound 106, N-(4-(N-(5-Methyl-1,3,4-thiadizol-2-yl)sulfamoyl)phenyl)acetamide], the inhibition at 10 µM in test [1] was less than 10%.
`CCCCCCCCCCCCc1ccc(S(=O)(=O)Nc2nnc(CC)s2)cc1` [Compound 112, 4-Dodecyl-N-(5-ethyl-1,3,4-thiadiazol-2-yl)benzenesulfonamide] had an IC50 in test [3] of 32 µM.
Turning to `Cc1nnc(NS(=O)(=O)c2ccc(N)cc2)s1` [Compound 105, 4-Amino-N-(5-methyl-1,3,4-thiadiazol-2-yl)benzenesulfonamide], the inhibition at 10 µM in test [1] is 11%.
With `O=C(Nc1ccccc1)c1ccccc1NC(=O)c1ccccc1C(=O)O` [Compound 439], the “Cell viability (IC50)” value with pancreatic cancer cells is “N/I”.
In the case of `CCCCCCCCCCCCc1ccc(S(=O)(=O)Nc2nnc(CC(=O)OCC)s2)cc1` [Compound 120E, Ethyl 2-(5-(4-Dodecylphenylsulfonamido)-1,3,4-thiadiazol-2-yl)acetate], 70 µM corresponded to half-maximal inhibition in test [3] (IC50).
In the case of `CC(=O)Nc1ccc(S(=O)(=O)Nc2nnc(CC(=O)O)s2)cc1` [Compound 118, 2-(5-(4-Acetamidophenylsulfonamido)-1,3,4-thiadiazol-2-yl)acetic Acid], in test [1], the inhibition at 10 µM turned out to be 19%.
In the case of `CC(=O)Nc1ccc(NS(=O)(=O)c2c(C)noc2C)cc1` [Compound 451], in the test on pancreatic cancer cells, the “Cell viability (IC50)” value is “N/I”. The “pAKT inhibition (IC50)” value in test [2] is given as “N/I”.
Regarding `COc1cccc(OC)c1C(=O)Nc1ccc(S(=O)(=O)Nc2ccccn2)cc1` [Compound 449], the IC50 in the test on pancreatic cancer cells was 190 µM. In addition, the “pAKT inhibition (IC50)” value in test [2] was “N/I”.
Take `COc1ccc(NC(=O)c2ccccc2NC(=O)c2ccccc2C(=O)O)c(OC)c1` [Compound 442]: in the test with pancreatic cancer cells, the “Cell viability (IC50)” value was “N/I”. In test [2], the “pAKT inhibition (IC50)” value is “N/I”.
